From article PMC5363571 (Oncotarget, 2016) come the findings set out here.

Counter-ions that a name gives are not always drawn. Some results are limits rather than exact numbers.

In this experiment the target is USP7 (Homo sapiens, UniProt Q93009). The experiment is described as follows: biochemical. More on the design: Ub-AMC hydrolysis by recombinant USP7 (20 nM), 30 min pre-incubation, fluorescence read-out. The note with it: read-out: % Inhibition at 50 μM.
Chain of USP7 (Q93009 whole entry): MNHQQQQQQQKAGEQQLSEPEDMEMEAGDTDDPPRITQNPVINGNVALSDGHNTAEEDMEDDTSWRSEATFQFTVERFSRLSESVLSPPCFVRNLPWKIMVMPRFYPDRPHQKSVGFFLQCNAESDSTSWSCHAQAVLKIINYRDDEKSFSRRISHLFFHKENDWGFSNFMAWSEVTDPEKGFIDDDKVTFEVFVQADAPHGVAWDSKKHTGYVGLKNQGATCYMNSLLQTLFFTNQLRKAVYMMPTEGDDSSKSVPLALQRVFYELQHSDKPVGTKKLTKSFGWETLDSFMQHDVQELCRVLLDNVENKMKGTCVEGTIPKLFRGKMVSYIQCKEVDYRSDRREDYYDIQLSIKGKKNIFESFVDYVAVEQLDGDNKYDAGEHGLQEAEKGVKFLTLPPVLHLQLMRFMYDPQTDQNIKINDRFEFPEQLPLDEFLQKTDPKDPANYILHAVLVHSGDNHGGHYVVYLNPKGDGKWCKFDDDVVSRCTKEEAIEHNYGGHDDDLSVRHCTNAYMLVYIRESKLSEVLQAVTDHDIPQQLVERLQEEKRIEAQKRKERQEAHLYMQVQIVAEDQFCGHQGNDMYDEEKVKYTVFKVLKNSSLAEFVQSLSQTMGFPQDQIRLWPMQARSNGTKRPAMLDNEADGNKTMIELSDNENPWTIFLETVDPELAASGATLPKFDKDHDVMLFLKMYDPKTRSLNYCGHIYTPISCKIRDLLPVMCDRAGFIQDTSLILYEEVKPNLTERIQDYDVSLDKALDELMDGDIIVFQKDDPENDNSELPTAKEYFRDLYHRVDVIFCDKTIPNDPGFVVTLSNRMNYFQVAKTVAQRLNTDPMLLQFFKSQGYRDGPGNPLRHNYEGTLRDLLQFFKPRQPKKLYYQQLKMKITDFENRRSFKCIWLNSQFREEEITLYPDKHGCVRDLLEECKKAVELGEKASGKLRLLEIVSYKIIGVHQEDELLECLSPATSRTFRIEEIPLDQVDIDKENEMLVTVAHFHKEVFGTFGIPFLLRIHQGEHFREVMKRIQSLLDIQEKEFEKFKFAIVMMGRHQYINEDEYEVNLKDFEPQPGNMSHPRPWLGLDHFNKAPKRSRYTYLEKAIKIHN
Broadly, the inhibition is how much of the control response was suppressed. Regarding `Cc1ccc(C(=O)c2cc(O)c(O)c([N+](=O)[O-])c2)cc1` [Tolcapone], the inhibition at 50 µM amounted to 28.6%.

In the case of `CC(=O)O[C@]1(C(C)=O)CC[C@H]2[C@@H]3C[C@H](C)C4=CC(=O)CC[C@]4(C)[C@H]3CC[C@@]21C` [Medroxyprogesterone 17-acetate], the inhibition at 50 µM is less than 5%.

As for `O=C(NCCNCC(O)COc1ccc(O)cc1)N1CCOCC1` (stereo not drawn) [Xamoterol hemifumarate], the inhibition at 50 µM is less than 5%.

Consider `CCN(CC)CCOc1ccc(C(=C(Cl)c2ccccc2)c2ccccc2)cc1` [Clomiphene citrate], for which the inhibition at 50 µM was less than 5%.

Turning to `CC(N/C(=N\C#N)Nc1ccncc1)C(C)(C)C` (stereo not drawn) [Pinacidil], the inhibition at 50 µM was less than 5%.

As to `Nc1nc2c(ncn2COCCO)c(=O)[nH]1` [Acycloguanosine], the inhibition at 50 µM was less than 5%.

For the compound `C=C1C[C@@H]2[C@H](CC[C@]3(C)C(=O)CC[C@@H]23)[C@@]2(C)C=CC(=O)C=C12` [Exemestane], the inhibition at 50 µM was less than 5%.

Take `CO[C@H]1C[C@@H]2CC[C@@H](C)[C@@](O)(O2)C(=O)C(=O)N2CCCC[C@H]2C(=O)O[C@H]([C@H](C)C[C@@H]2CC[C@@H](O)[C@H](OC)C2)CC(=O)[C@H](C)/C=C(\C)[C@@H](O)[C@@H](OC)C(=O)[C@H](C)C[C@H](C)/C=C/C=C/C=C/1C` [Rapamycin]: the inhibition at 50 µM is less than 5%.

On to `N=c1ccn2c(n1)O[C@H]1[C@H](O)[C@@H](CO)O[C@H]12` [Cyclocytidine HCl], for which the inhibition at 50 µM is 29.5%.

Consider `COc1ccc(C(=O)N2CCCC2=O)cc1` [Aniracetam], for which the inhibition at 50 µM is less than 5%.

In the case of `CN1C(C(=O)Nc2ccccn2)=C(O)c2ccccc2S1(=O)=O` [Piroxicam], the inhibition at 50 µM was less than 5%.

Take `O=C1Nc2ccc(Cl)cc2[C@@](C#CC2CC2)(C(F)(F)F)O1` [Efavirenz]: the inhibition at 50 µM was found to be 29.8%.

For `Clc1ccc(COC(Cn2ccnc2)c2ccc(Cl)cc2Cl)c(Cl)c1` (stereo not drawn) [Miconazole], the inhibition at 50 µM is less than 5%.

For `C[C@@H]1C(=O)O[C@H]2C[C@@]34[C@H]5C[C@@H](C(C)(C)C)[C@]36[C@@H](OC(=O)[C@@H]6O)O[C@@]4(C(=O)O5)[C@]21O` [Ginkgolide a], the inhibition at 50 µM is less than 5%.

Turning to `NCCCC[C@H](N[C@@H](CCc1ccccc1)C(=O)O)C(=O)N1CCC[C@H]1C(=O)O` [Lisinopril], the inhibition at 50 µM was 30.5%.

Regarding `CN1[C@@H]2C[C@@H](OC(=O)[C@H](CO)c3ccccc3)C[C@H]1[C@@H]1O[C@@H]12` [Scopolamine HBr], the inhibition at 50 µM is less than 5%.

With `CC(=O)O[C@H]1C[C@@H]2CC[C@@H]3[C@H](CC[C@@]4(C)[C@H]3C[C@H]([N+]3(C)CCCCC3)[C@@H]4OC(C)=O)[C@@]2(C)C[C@@H]1[N+]1(C)CCCCC1` [Pancuronium Br], the inhibition at 50 µM was less than 5%.

`CN1C[C@@H](NS(=O)(=O)N(C)C)C[C@@H]2c3cccc4c3c(cn4C)C[C@H]21` [Mesulergine HCl]: the inhibition at 50 µM was less than 5%.

On to `CCN(CC)C(=S)SSC(=S)N(CC)CC` [Disulfiram], for which the inhibition at 50 µM is less than 5%.

As for `CCCCCOC(=O)Nc1nc(=O)n([C@@H]2O[C@H](C)[C@@H](O)[C@H]2O)cc1F` [Capecitabine], the inhibition at 50 µM is less than 5%.

Consider `COC(=O)C1=C(C)NC(C)=C(C(=O)OCCN(C)Cc2ccccc2)C1c1cccc([N+](=O)[O-])c1` (stereo not drawn) [Nicardipine], for which the inhibition at 50 µM was less than 5%.

Regarding `C[N+](C)(C)[C@@H](Cc1c[nH]c(=S)[nH]1)C(=O)[O-]` [Ergothioneine], the inhibition at 50 µM is less than 5%.

On to `c1ccc2c(CC3=NCCN3)cccc2c1` [Naphazoline HCl], for which the inhibition at 50 µM is less than 5%.

For the compound `CN[C@@H]1[C@H](O)[C@H](NC)[C@H]2O[C@@]3(O)C(=O)C[C@@H](C)O[C@H]3O[C@@H]2[C@H]1O` [Spectinomycin], the inhibition at 50 µM is less than 5%.

`CC(C)(C)[C@]1(O)CCN2C[C@H]3c4ccccc4CCc4cccc(c43)[C@@H]2C1` [Butaclamol (+)]: the inhibition at 50 µM is less than 5%.

Consider `COc1cc2nc(N3CCN(C(=O)C4COc5ccccc5O4)CC3)nc(N)c2cc1OC` (stereo not drawn) [Doxazosin mesylate], for which the inhibition at 50 µM is less than 5%.

Turning to `CN1CCCCC1CCN1c2ccccc2Sc2ccc([S+](C)[O-])cc21` (stereo not drawn) [Mesoridazine besylate], the inhibition at 50 µM was found to be 16.5%.

`COc1ccc(C(=O)c2c(C)n(CCN3CCOCC3)c3ccccc23)cc1` [Pravadoline]: the inhibition at 50 µM is less than 5%.

Take `CN(C)/N=N/c1[nH]cnc1C(N)=O` [Dacarbazine]: the inhibition at 50 µM is less than 5%.

Consider `CC(C)COCC(CN(Cc1ccccc1)c1ccccc1)N1CCCC1` (stereo not drawn) [Bepridil], for which the inhibition at 50 µM was less than 5%.

Consider `NCCCC(O)(P(=O)(O)O)P(=O)(O)O` [Alendronate], for which the inhibition at 50 µM was less than 5%.

In the case of `COc1ccc(C[C@H](N)C(=O)N[C@H]2[C@@H](O)[C@H](n3cnc4c(N(C)C)ncnc43)O[C@@H]2CO)cc1` [Puromycin 2HCl], the inhibition at 50 µM is less than 5%.

Consider `O=C(CCCN1CCC(O)(c2ccc(Cl)cc2)CC1)c1ccc(F)cc1` [Haloperidol HCl], for which the inhibition at 50 µM was less than 5%.

With `C[C@@](Cc1ccc(O)c(O)c1)(NN)C(=O)O` [Carbidopa], the inhibition at 50 µM was less than 5%.

For the compound `C/N=C(/NC#N)NCCSCc1csc(NC(=N)N)n1` [Tiotidine], the inhibition at 50 µM came to 11.6%.

For `O=C(O)CCCc1ccccc1` [Sodium phenylbutyrate], the inhibition at 50 µM was less than 5%.

Regarding `CC[C@@H](CO)NC(=O)[C@@H]1C=C2c3cccc4c3c(cn4C)C[C@H]2N(C)C1` [Methysergide], the inhibition at 50 µM was less than 5%.

As for `CCCCNC(=O)NS(=O)(=O)c1ccc(C)cc1` [Tolbutamide], the inhibition at 50 µM is less than 5%.

On to `O=c1[nH]c2ccccc2n1CCCN1CCC(n2c(=O)[nH]c3cc(Cl)ccc32)CC1` [Domperidone], for which the inhibition at 50 µM is less than 5%.

As for `C[C@H](N)[C@H](O)c1ccccc1` [Phenylpropanolamine], the inhibition at 50 µM is less than 5%.

With `C[C@@H]1CN(c2c(F)c(N)c3c(=O)c(C(=O)O)cn(C4CC4)c3c2F)C[C@H](C)N1` [Sparfloxacin], the inhibition at 50 µM is less than 5%.

`CC(=O)OCC[N+](C)(C)C` [Acetylcholine Cl]: the inhibition at 50 µM is less than 5%.

In the case of `O=C(O)Cc1ccccc1` [Sodium phenylacetate], the inhibition at 50 µM is less than 5%.

As for `CCN1CCCC1CNC(=O)c1cc(S(=O)(=O)CC)c(N)cc1OC` (stereo not drawn) [Amisulpride], the inhibition at 50 µM was less than 5%.

For the compound `CC1=C(C)C(=O)C(CCCCC#CCCCC#CCO)=C(C)C1=O` [Docebenone], the inhibition at 50 µM is less than 5%.

As for `COc1cc(NC(C)CCCN)c2ncccc2c1` (stereo not drawn) [Primaquine phosphate], the inhibition at 50 µM is less than 5%.

In the case of `CCOC(=O)N1CCC(=C2c3ccc(Cl)cc3CCc3cccnc32)CC1` [Loratadine], the inhibition at 50 µM was determined as 20.4%.

`O=C(c1ccc(F)cc1)C1CCN(CCn2c(=O)[nH]c3ccccc3c2=O)CC1` [Ketanserin tartrate]: the inhibition at 50 µM was less than 5%.

Take `CN(C)C(=O)C(CCN1CCC(O)(c2ccc(Cl)cc2)CC1)(c1ccccc1)c1ccccc1` [Loperamide]: the inhibition at 50 µM was less than 5%.

For `CC(C)(C)NCC(O)c1ccc(O)c(CO)c1` (stereo not drawn) [Salbutamol sulfate], the inhibition at 50 µM was less than 5%.

With `CC(COc1ccccc1)N(CCCl)Cc1ccccc1` (stereo not drawn) [Phenoxybenzamine HCl], the inhibition at 50 µM was less than 5%.

As to `CN(C)CCC[C@@]1(c2ccc(F)cc2)OCc2cc(C#N)ccc21` [Escitalopram], the inhibition at 50 µM was less than 5%.

For the compound `OCCN1CCN(CCCN2c3ccccc3Sc3ccc(C(F)(F)F)cc32)CC1` [Fluphenazine 2HCl], the inhibition at 50 µM was less than 5%.

Take `CCN[C@H]1C[C@H](C)S(=O)(=O)c2sc(S(N)(=O)=O)cc21` [Dorzolamide]: the inhibition at 50 µM is less than 5%.

`COc1ccc(CCN(C)CCCC(C#N)(c2ccc(OC)c(OC)c2)C(C)C)cc1OC` (stereo not drawn) [Verapamil]: the inhibition at 50 µM is less than 5%.

Consider `CCC[S+]([O-])c1ccc2[nH]c(NC(=O)OC)nc2c1` (stereo not drawn) [Ricobendazole], for which the inhibition at 50 µM is less than 5%.

Turning to `c1ccc([C@H]2CN3CCSC3=N2)cc1` [Levamisole HCl], the inhibition at 50 µM was less than 5%.

Consider `C[C@H](N[C@@H](CCc1ccccc1)C(=O)O)C(=O)N1CCC[C@H]1C(=O)O` [Enalaprilat], for which the inhibition at 50 µM is less than 5%.

For `Oc1ccc2c3c1O[C@H]1c4[nH]c5ccccc5c4C[C@@]4(O)[C@@H](C2)N(CC2CC2)CC[C@]314` [Naltrindole HCl], the inhibition at 50 µM is less than 5%.

`CC(NC(C)(C)C)C(=O)c1cccc(Cl)c1` (stereo not drawn) [Amfebutamone]: the inhibition at 50 µM is less than 5%.

In the case of `CCCC[N+]1(C)[C@@H]2C[C@@H](OC(=O)[C@H](CO)c3ccccc3)C[C@H]1[C@@H]1O[C@@H]12` (stereo partly drawn) [Scopolamine n-butylbromide], the inhibition at 50 µM was less than 5%.

Turning to `C[C@H]1[C@H](C)CC[C@]2(C(=O)O)CC[C@]3(C)C(=CC[C@@H]4[C@@]5(C)C[C@@H](O)[C@H](O)[C@@](C)(CO)[C@@H]5[C@H](O)C[C@]43C)[C@H]12` [Madecassic acid], the inhibition at 50 µM was less than 5%.

For `N[C@@H](Cc1ccc(N(CCCl)CCCl)cc1)C(=O)O` [Melphalan], the inhibition at 50 µM is less than 5%.

As to `CN(C)CCCN1c2ccccc2CCc2ccccc21` [Imipramine HCl], the inhibition at 50 µM came to 26.5%.

In the case of `CC1(C)CC[C@]2(C(=O)O)CC[C@]3(C)C(=CC[C@@H]4[C@@]5(C)CC[C@H](O)[C@@](C)(CO)[C@@H]5CC[C@]43C)[C@@H]2C1` [Hederagenin], the inhibition at 50 µM is 36.5%.

Consider `C=C(C)[C@@H]1CC[C@]2(C(=O)O)CC[C@]3(C)[C@H](CC[C@@H]4[C@@]5(C)CC[C@H](O)C(C)(C)[C@@H]5CC[C@]43C)[C@@H]12` [Betulinic acid], for which the inhibition at 50 µM worked out at 25.8%.

For `CC(=O)O[C@]1(C(C)=O)CC[C@H]2[C@@H]3C=C(Cl)C4=CC(=O)[C@@H]5C[C@@H]5[C@]4(C)[C@H]3CC[C@@]21C` [Cyproterone acetate], the inhibition at 50 µM is 28.6%.

`CN/C(=N\c1ccc(C2=NNC(=O)CC2C)cc1)NC#N` (stereo not drawn) [Siguazodan]: the inhibition at 50 µM was less than 5%.

With `COc1cccc2c1C(=O)c1c(O)c3c(c(O)c1C2=O)C[C@@](O)(C(=O)CO)C[C@@H]3O[C@H]1C[C@H](N)[C@H](O)[C@H](C)O1` [Doxorubicin HCl], the inhibition at 50 µM is less than 5%.
